Patent US6552197B2, “Condensed-hexacyclic compounds and a process therefor” (Daiichi Pharmaceutical Co., Ltd., priority 1995, dated 2003)

Experiments:
[1] = Hygroscopicity test (weight changes due to moisture absorption); type: physicochemical; settings: exposed to humidity of 83% and 93% at 25° C. over 5 days; FIG. 1
Method: A hygroscopicity test was conducted on (lS,9S)-1-amino-9-ethyl-5-fluoro-2,3-dihydro-9-hydroxy-4-methyl-1H,12H-benzo[de]pyrano[3′,4′:6,7]indolizino[1,2-b]-quinoline-10,13(9H,15H)-dione•methanesulfonate•dihydrate according to the present invention and (1S,9S)-1-amino-9-ethyl-5-fluoro-2,3-dihydro-9-hydroxy-4-methyl-1H,12H-benzo[de]pyrano[3′,4′:6,7]indolizino[1,2-b]-quinoline-10,13(9H,15H)-dione-hydrochloride (control product).
Described specifically, each salt was exposed to high-humidity conditions of 83% and 93% at 25° C. Over a period of 5 days, its weight changes were investigated.

[2] = Color change on storage at high relative humidity, measured by a color difference meter; type: physicochemical; settings: for color change observed on stored sample: stored at a high relative humidity
Method: The control product was stored at a relative humidity of 93% and the degree of a color change was measured.

[3] = stored for 0 month, relative humidity 93%
[4] = stored for 1 month, 25° C., relative humidity 93%
[5] = stored for 2 months, 25° C., relative humidity 93%

Row | Compound | weight changes due to moisture absorption (hygroscopicity) [1] | color change observed on stored sample [2] | decomposition by moisture absorption (conclusion from color change) ([2]; stored at 25° C., relative humidity 93%) | Color [2, 3] | Lab (chromaticity, brightness) [2, 3] | Color [2, 4] | Lab (chromaticity, brightness) [2, 4] | ΔE(H) (degree of a color difference) [2, 4] | Color [2, 5] | Lab (chromaticity, brightness) [2, 5] | ΔE(H) (degree of a color difference) [2, 5]
1 | CC[C@@]1(O)C(=O)OCc2c1cc1n(c2=O)Cc2c-1nc1cc(F)c(C)c3c1c2[C@@H](N)CC3 [methanesulfonate, (1S,9S)-1-Amino-9-ethyl-5-fluoro-2,3-dihydro-9-hydroxy-4-methyl-1H,12H-benzo[de]pyrano[3′,4′:6,7]-indolizino[1,2-b]quinoline-10,13(9H,15H)-dione•methanesulfonate•dihydrate] | a gradual and small change | No color change | – | – | – | – | – | – | – | – | –
2 | CC[C@@]1(O)C(=O)OCc2c1cc1n(c2=O)Cc2c-1nc1cc(F)c(C)c3c1c2[C@@H](N)CC3.Cl [control product, (1S,9S)-1-amino-9-ethyl-5-fluoro-2,3-dihydro-9-hydroxy-4-methyl-1H,12H-benzo[de]pyrano[3′,4′:6,7]indolizino[1,2-b]-quinoline-10,13(9H,15H)-dione-hydrochloride] | high hygroscopicity and a fast weight change due to hygroscopicity | color change (yellowish brown—brown; originally: yellow) was observed | decomposes by moisture absorption | Yellow | 81.68-81.69 | brown-yellow | 74.96-75.23 | 7.16-7.38 | brown-yellow | 62.65-67.43 | 14.53-19.24
